Reference: patent US9895344B2, “Treating various disorders with 7,8-dihydroxyflavone and derivatives thereof” (EMORY UNIVERSITY, priority 2008, dated 2018)

Columns and labels:
Caspase-3 activation [1] = assay: Caspase-3 activation in wild-type and TrkC-/- cortical neurons; format: cell-based, mice; conditions: FIG. 22 row 5
Experimental: To further assess whether 7,8-dihydroxyflavone blocks neuronal apoptosis in a TrkB dependent manner, cortical neurons were prepared from homozygous pups of TrkC+/−mice, which were mated to the same genotype. […] Glutamate weakly stimulated both TrkA and TrkB faint phosphorylation regardless of TrkC genotype (FIG. 22, rows 1 and 3). The spontaneous caspase-3 activation in TrkC−/− neurons was suppressed by 7,8-dihydroxyflavone (FIG. 22, row 5).

hippocampal neurons = assay: Glutamate-triggered apoptosis in hippocampal neurons; format: cell-based; conditions: pretreated 30 minutes, 50 μM glutamate for 16 hours, compared with BDNF, FIG. 6
Experimental: To examine whether these compounds could promote neuronal survival, hippocampal neurons were prepared and the cultures were pretreated with various flavone derivatives for 30 minutes, followed by treatment with 50 μM glutamate for 16 hours.

immobility = assay: Forced swim test, 5 days intraperitoneal; format: in vivo, mice; conditions: intraperitoneally for 5 days; imipramine 20 mg/kg, amitryptyline 15 mg/kg, 7,8-dihydroxyflavone 5 mg/kg; FIG. 25
Experimental: Adult male mice (2-3 months old, n=8) were randomly submitted, without a pre-swim, to a forced swim test of 6 minutes with immobility recorded in the last 4 minutes. Mice were injected intraperitoneally for 5 days with saline, imipramine (20 mg/kg), amitryptyline (15 mg/kg), or 7,8-dihydroxyflavone (5 mg/kg). The mice were allowed to adapt to the test room for 2 days, and the mice were placed in a clear glass cylinder with a diameter of 16 cm, half-filled with clear water at 24° C. […] Data are presented as mean±SEM; *p<0.05 against vehicle, **P<0.01 against vehicle and ***P<0.0001 against vehicle, student t-test.

caspase-3 activation [2] = assay: Active caspase-3 ELISA in glutamate-treated cortical neurons; format: cell-based, rat; conditions: 50 nM or higher concentrations, 50 μM glutamate for 16 hours, FIG. 29
Experimental: To quantitatively compare the anti-apoptotic activity of 7,8-DHF and 4′-DMA-7,8-DHF, cortical neurons were prepared from E16 rat embryonic cells and pretreated with various indicated concentrations of 4′-DMA-7,8-DHF and 7,8-DHF for 30 min, followed by 50 μM glutamate for 16 hours. The cell lysates were quantitatively analyzed with an active caspse-3 ELISA.

TrkA = TrkA (Mus musculus, UniProt Q3UFB7); assay: Trk activation in cortical neurons from wild-type and TrkB-null pups: TrkA; format: cell-based, mice; design: endogenous in cells; host or cells: primary cortical neurons of mouse pups; conditions: FIG. 21
TrkA, sequence (Q3UFB7 34-799): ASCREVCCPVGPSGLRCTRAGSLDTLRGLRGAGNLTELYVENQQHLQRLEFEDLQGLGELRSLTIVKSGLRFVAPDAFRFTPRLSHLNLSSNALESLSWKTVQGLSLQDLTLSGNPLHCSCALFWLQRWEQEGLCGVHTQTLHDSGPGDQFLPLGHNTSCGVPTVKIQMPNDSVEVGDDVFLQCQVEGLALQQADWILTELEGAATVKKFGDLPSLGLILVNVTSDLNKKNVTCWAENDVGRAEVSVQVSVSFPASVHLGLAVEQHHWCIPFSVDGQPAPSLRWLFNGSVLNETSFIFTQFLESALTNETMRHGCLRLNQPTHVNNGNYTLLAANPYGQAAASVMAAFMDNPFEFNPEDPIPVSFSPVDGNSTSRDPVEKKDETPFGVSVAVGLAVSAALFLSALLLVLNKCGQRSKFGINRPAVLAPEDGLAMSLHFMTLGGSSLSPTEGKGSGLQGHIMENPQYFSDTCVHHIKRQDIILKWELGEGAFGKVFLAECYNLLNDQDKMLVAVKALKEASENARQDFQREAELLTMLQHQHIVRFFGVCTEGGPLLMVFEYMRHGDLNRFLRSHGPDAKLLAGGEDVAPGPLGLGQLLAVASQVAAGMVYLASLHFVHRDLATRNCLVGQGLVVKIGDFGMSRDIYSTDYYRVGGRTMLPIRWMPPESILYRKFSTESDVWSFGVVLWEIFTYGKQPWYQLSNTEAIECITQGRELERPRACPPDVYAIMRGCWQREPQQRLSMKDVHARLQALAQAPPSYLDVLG
Experimental: To determine whether 7,8-dihydroxyflavone can selectively activate TrkB receptor and prevent neuronal cell death, cortical neurons were prepared from homozygous pups of TrkB+/−mice, which were mated to the same genotype. […] Glutamate nonselectively elicited weak TrkA phosphorylation in both wild-type and TrkB-null neurons (FIG. 21, row 3).

Akt = assay: Western analysis of Akt phosphorylation in hippocampal neurons; format: cell-based
Experimental: To further examine whether 7,8-dihydroxyflavone can stimulate TrkB-mediated downstream signaling cascades, Western analysis was performed.
To probe the time course of 7,8-dihydroxyflavone triggered TrkB activation, hippocampal neurons were treated with 7,8-dihydroxyflavone at 500 nM and phosphorylation of Erk and Akt was determined over time by Western analysis. […] Stimulation of Erk and Akt by 7,8-dihydroxyflavone also occurred in a dose dependent manner.

## O=c1cc(-c2ccccc2)oc2c(O)c(O)ccc12 [7,8-dihydroxyflavone]
Caspase-3 activation [1]
  spontaneous caspase-3 activation in TrkC-/- neurons: suppressed
Caspase-3 activation [1]; regardless of TrkC genotype
  glutamate-triggered caspase-3 activation: significantly diminished
Hippocampal neurons
  protection of hippocampal neurons from glutamate-induced apoptosis: more protective effect on the neurons than did the positive control BDNF
immobility
  swimming immobility: reduced the immobility
caspase-3 activation [2]
  Glutamate-provoked caspase-3 activation: substantially blocked
TrkA
  TrkA activation: not TrkA receptor
Akt; 500 nM
  time at which Akt phosphorylation peaked: 30 min
  time at which Akt phosphorylation was seen: 10 min
  time by which Akt phosphorylation faded: 180 min
Akt; FIG. 9
  Akt activation (Western): activated
Akt; treatment for 30 minutes
  concentration at which Akt activation was observed: 100 nm
